Measured values as given in paper PMC4838890, “Dynamic and flexible H3K9me3 bridging via HP1β dimerization establishes a plastic state of condensed chromatin” (Nature Communications, 2016).

How the values were obtained:
H3K9me3 oligonucleosomes [1] = experiment: Chromatin coprecipitation, H3K9me3 oligonucleosomes; format: binding, Xenopus laevis
Method: 6.7 nM oligonucleosomes were incubated with 1 μM recombinant protein in 100 μl binding buffer (10 mM triethanolamine (pH 7.5), 150 mM NaCl, 5 mM MgCl2, 0.1 mM EDTA, 0.1% (v/v) Triton-X100) for 1 h on ice. Precipitated chromatin complexes were recovered by centrifugation at 16,100g for 30 min at 4°C. Pellets were washed once with 0.5 ml binding buffer and centrifuged for 15 min at 4 °C. Precipitated material was resuspended in 10 μl 1 × SDS loading buffer and boiled for 5 min before running on SDS–PAGE.
Supplementary Table 1: Summary of conditions used in the different experiments of this study.
experiment result modification template Temp. [NaCl] [MgCl2]
chromatin Fig. 1e,f; Fig. S1f-h; H3K9me3 oligo- 4 150 5

H3K9me3 oligonucleosomes [2] = experiment: Chromatin sedimentation (clustering), H3K9me3 oligonucleosomes; format: biochemical, Xenopus laevis; details: for chromatin clustering/aggregation, H3K9me3: saturating protein (5 μM) or titration, EtBr fluorescence, n=3
Method: Figure 3 hHP1β clusters oligonuclesomal arrays in dependence of H3K9me3. (a) Oligonucleosomes (2.5 nM) were incubated with increasing concentrations of hHP1β WT or I161A at 150 mM NaCl. DNA remaining in the supernatant after centrifugation was incubated with EtBr and measured by fluorescence reading. Data were normalized to amounts in absence of added protein. Averages of three independent experiments are plotted; error bars represent s.d.; n=3. (b) Analysis of the hydrodynamic radius of oligonucleosomes (10 nM; DNA labelled with ATTO 610) in the presence of increasing concentrations of hHP1β WT or I161A by FCS at 150 mM NaCl. For details on experimental setup see Supplementary Fig. 3. Error bars represent s.d.; n=3. (c) Oligonucleosomes were reconstituted after mixing H3K9me0 and H3K9me3 octamers at different ratio. Chromatin precipitation analysis at 150 mM NaCl was carried out with hHP1β WT at saturating concentration. Data are presented as in a. (d) Precipitation behaviour of oligonucleosomes (2.5 nM) was analysed at different concentrations of NaCl with hHP1β WT at saturating concentration. Data are presented as in a. (e) H3K9me3-containing chromatin was reconstituted using wild-type core histones or tailless H2A, H2B or H4. Oligonucleosomes (2.5 nM) were incubated with increasing concentrations of hHP1β WT at 150 mM NaCl. Data are presented as in a. (f) Chromatin coprecipitation of hHP1β with H3K9me3-containing oligonucleosomes reconstituted with wild-type or tailless core histones at the indicated concentrations of MgCl2. Precipitated material was analysed by western blotting. The region of the western blot membrane of the experiment at 7.5 mM MgCl2 containing histones was stained with Ponceau. (g) Oligonucleosomes at 50 mM NaCl were incubated with hHP1β WT or I161A. Complexes were fixed with 0.05% (v/v) glutaraldehyde, spotted on mica surfaces and analysed by scanning force microscopy. Control, no protein added; scale bar, 100 nm. (h) Quantification of results representatively shown in g according to the classification on the top: A, extended; B, partially condensed; C, fully condensed; D; aggregates; n>50 for each condition.
For saturating conditions, 2.7 nM oligonucleosomes were incubated with 5 μM hHP1β proteins in 100 μl sedimentation buffer (10 mM triethanolamine (pH 7.5), 150 mM NaCl, 0.1 mM EDTA) for 1 h on ice. For non-saturating conditions, 3 μM recombinant proteins were used and the NaCl concentration in the sedimentation buffer was lowered to 100 mM. After incubation, 40 μl per sample was placed into a well of a 96-well plate and kept as ‘input'. The rest was centrifuged at 16,100g for 30 min at 4°C. 40 μl supernatant was carefully removed and placed into a 96-well plate (‘output'). For quantification of chromatin DNA, the input and output samples were incubated with 40 μl 0.5 μg ml^−1 ethidium bromide and fluorescence was measured on a Plate CHAMELEON II fluorescence plate reader (Hidex, Turku, Finland) using a 360 nm (±5 nm) excitation filter and a 612 nm (±5 nm) emission filter. For each sample the ratio of DNA concentrations after and before centrifugation (output/input) was calculated.
Supplementary Table 1: Summary of conditions used in the different experiments of this study. experiment result modification template Temp. [NaCl] [MgCl2] […]
chromatin Fig. 1e,f; Fig. S1f-h; H3K9me3 oligo- 4 150 5 coprecipitation Fig. S2b nucleosomes
Fig. S7d,f; Fig.S9c nucleosomes […]
chromatin sedimentation Fig. 4a; H3K9me3 oligo- 4 150 0
(single point) Fig. S3b nucleosomes […]
chromatin sedimentation. oligo-(titration) Fig. 3a H3K9me3 nucleosomes 4 150 0 […]
crosslinking Fig. S6e,f nucleosomes […]
crosslinking Fig. S7a,b nucleosomes
EMSA Fig. 1g; Fig. 5c; n//a RT 100 5
1Preincubation of oligonucleosomes and h HP1β was performed at 4 °C . Measurements wer e carried out at the in dicated te mperature.
2in increments o f 0 .5 mM
3MgCl2 was added at the end of incubation to coprecipitate oligonucleosomes a nd bound hHP1β.

Substance	specificity for H3K9me3 (H3K9me3 oligonucleosomes [1]; chromatin coprecipitation, 5 mM MgCl2)	dependence of recovery on DNA sequence (H3K9me3 oligonucleosomes [1]; chromatin on linearized pUC18 or 12 x 5S rDNA)	concentration sufficient for maximal chromatin clustering (H3K9me3 oligonucleosomes [2]; 150 mM NaCl)	EC50 (H3K9me3 oligonucleosomes [2]; 150 mM NaCl, 4°C, read-out: half-maximal effect, chromatin precipitation assay)	chromatin clustering/aggregation, H3K9me3 (H3K9me3 oligonucleosomes [2]; 150 mM NaCl)	salt concentration above which hHP1β induces clustering (H3K9me3 oligonucleosomes [2]; salt titration, saturating hHP1β WT, 2.5 nM oligonucleosomes)	reversibility of aggregation (H3K9me3 oligonucleosomes [2]; stepwise precipitation and resolubilization)	recovery with H3K9me3 oligonucleosomes (H3K9me3 oligonucleosomes [1]; 6.7 nM oligonucleosomes, 1 μM protein, 150 mM NaCl, 5 mM MgCl2, 1 h on ice)	competition with hHP1β WT for interaction with H3K9me3 oligonucleosomes (H3K9me3 oligonucleosomes [1]; competitive coprecipitation, Supplementary Fig. 2b)	chromatin clustering/aggregation, H3K9me3 (H3K9me3 oligonucleosomes [2]; 150 mM NaCl, listed as I161A)
hHP1β WT: recombinant human heterochromatin protein 1β (GenBank NM_001127228), 185 aa	coprecipitated only with H3K9me1/2/3 but not H3K9me0 oligonucleosomes	independent of the DNA sequence used for chromatin reconstitution	5 µM	400 nM	efficiently aggregated H3K9me3	above 50 mM NaCl	generally reversible			
hHP1β I161A: CSD point mutant of hHP1β incapable of dimerization					failed to induce the aggregation of oligonucleosomes			neither the monomeric CD alone nor an I161A mutant protein, which is incapable of dimerization[8], were significantly recovered with H3K9me3 oligonucleosomes	ineffective in competing with hHP1β WT	neither the I161A mutant, nor the isolated CD or CSD had any effect on modified or unmodified chromatin
